Paper PMC3351437, “Skin-Targeted Inhibition of PPAR β/δ by Selective Antagonists to Treat PPAR β/δ – Mediated Psoriasis-Like Skin Disease In Vivo” (PLoS ONE, 2012)
Where two headings read alike, the source gives them in different places.

Key:
[1] = system: HB-EGF, IL1b, LCE3e/LCE3f expression; test: Real-time PCR of PPAR β/δ target genes in skin; format: in vivo, PPAR β/δ transgenic mice
Description: Skin was processed by removing subcutaneous tissue and small skin pieces were snap frozen in liquid nitrogen. Frozen skin was ground and RNA was extracted using the NucleoSpin RNA/Protein kit from Macherey-Nagel. cDNA synthesis was done with the SuperScript Vilo cDNA synthesis kit from Invitrogen. Gene expression levels were quantified using TaqMan-based real-time PCR using Assays-on-Demand kits obtained from Applied biosystems according to the manufacturer's instruction and quantification performed as calibrated to the internal housekeeping gene GAPDH (LCE3f: Mm02605425, Il1β: Mm01336189, Hb-EGF: Mm00439305).

[2] = Drug quantification in skin and blood of diseased mice (mass spectrometry); format: in vivo, PPAR β/δ transgenic mice; details: for concentration at 12 h: 12 h after the last cream application
Method: (§1) 50 µL of cardiac blood were diluted 1∶2 (v∶v) with milipore water and snap frozen immediately. Previously treated skin segments were shaved, tape-stripped three times to remove residual hair and non-absorbed ointment on the surface, and then snap frozen in liquid nitrogen. Frozen skin was ground and ten times the volume of methanol-water (1∶1 v/v) was added per weight unit of skin. A minimum of 20 mg of skin was used per each sample. Samples were homogenized with a Covaris S2 acoustic homogeniser. For both cardiac blood and skin homogenate, proteins were precipitated by adding 3 volumes of acetonitrile containing a suitable internal standard. All samples were then centrifuged for 10 minutes at 2800 rpm before transfer of 200 µL of supernatant into a 96 well plate and 100 µL of milliQ water added. Calibration curves were constructed in either untreated homogenised skin or blood to cover at least 3 orders of magnitude (1–2000 ng/mL) and extracted as for aforementioned study samples. All cardiac blood, skin samples and standards were then investigated by mass spectrometry as described below. For calculation of total blood volume, mice were weighed and an average blood volume of 7% (mL/g) of body mass was assumed.
(§2) An Acquity ultra high performance liquid chromatography (UPLC) system; consisting of an autosampler, the Acquity UPLC Sample Manager with Sample Organiser, a pump, the Acquity UPLC Binary Solvent Manager, an in-built column oven, a UV detector, the Acquity UPLC Photo Diode Array) and a Quattro Premier XE triple quadrupole mass spectrometer (Waters, UK). […] The analytical column was an Acquity UPLC BEH C18, 2.1 mm i.d. ×50 mm length, 1.7 µm particle size (Waters, UK). No guard column was used, but a vanguard […].
(§3) Mobile phase A was Milli-Q reverse phase de-ionised water with formic acid (0.1%, v∶v), mobile phase B was acetonitrile with formic acid (0.1%, v∶v). Mobile phase was delivered at a flow rate of 0.6 mL/min. […] Finally mobile phase B was returned to 5% over 0.1 min and maintained at this composition for 0.4 min. Total run time 3 min.
(§4) The entire flow was introduced into the Mass spectrometer. The autosampler was set at 4°C and an injection voloume of 5 µL was used (partial loop). […] An in-house proprietary internal standard was used for determination of all 3 analytes.

[3] = Storage stability at room temperature and light exposure; format: physicochemical
other PPAR isoforms = system: other PPAR isoforms; parameters: method as in references listed in Figure 1 / ref 13; details: in vitro data taken from literature, ref references listed in Figure 1 / ref 13, cited from earlier work
[4] = Blood concentration after topical application (UPLC/mass spectrometry); format: in vivo, C57Bl/6j wild type mice; details: for total amount of detectable compound in blood as fraction of total drug applied: 1 h after topical application, blood volume assumed 7% of body mass
Method: as §1, §2, §3, §4

[5] = Drug solubility in ointment, absence of crystals by polarised microscopy; format: physicochemical; details: Hydromol ointment with DMSO
Method: These included drug incorporation into liquified vehicle at 70°C, pre-disolvement in DMSO, ethanol, isopropanol, polyethyene glycol 300, and olive oil followed by vehicle incorporation, as well as a variety of vehicles (liquid paraffin, Hydromol ointment, aqueous ointment BP). Drug solubility was assessed using a previously reported method relying on the absence of crystals detectable by polarised microscopy.
All PPAR β/δ antagonists were custom-synthesized by AF-Chempharm (UK). […] Compound 3 h was pre-dissolved in DMSO, left at room temperature for 20 min at low agitation and then incorporated into Hydromol ointment using a melamin bowl to yield final concentrations of 0.5% (w/w) 3 h, and 5% (w/w) of DMSO, respectively. […] Vehicle-only contro ointment was prepared exactly as GSK0660 ointment while omitting the chemical itself. Ointments were stored in airtight containers at 4°C in the dark and made fresh once a week.

shaved dorsal skin = test: Skin histology after one week of topical application (inflammatory changes); format: in vivo, C57Bl/6j wild type mice; details: for number of dermal nuclei per high power field: vs vehicle-only treated skin; for epidermal hyperplasia induced by antagonist: twice daily for one week
Method: We next determined the local concentrations in skin at steady state after prolonged topical application. […] Skin samples were then extracted and analysed by mass spectrometry for concentration determination as well as processed for histology. […] 90 min (cf. fig. 2b). […] Infrequently, we noted apoptotic epidermal keratinocytes (inset, middle row of H&E sections). Since these cells were also found in transgenic PPAR β/δ mice treated with the agonist only (figure S1), the exact underlying cause is unclear but unlikely to underlie the treatment effect of the antagonist creams.
Figure 4 Absence of inflammatory changes induced by PPAR β/δ antagonists in skin after topical application. […] Mice were sacrificed 1 h after the last ointment application and skin tissue processed for H&E based histology and mass spectrometry, as described in Methods. Data shown represent average ± s.d. of n = 3 mice per data point (left) treated with GSK (blue columns) or compound 3 h (red). Representative histology sections of all treated mice are shown on right. […] Horizontal bar represents 5 µm.
(§5) Mice were sacrificed, skin samples obtained and processed for H&E based histology as described. All samples were photographed at 200× magnification. Epidermal thickness was measured for all slides by a blinded observer at perpendicular angle to the basement membrane. The absence of variable planes of tissue sectioning as a confounder for apparent epidermal thickness was ruled out by verifying visible perpendicular insertion of hair follicles into the epidermis. For each sample, two measurements were taken in two separately photographed non-adjacent sections of the H&E stained skin sample.

[6] = Skin concentration after topical application (UPLC/mass spectrometry); format: in vivo, C57Bl/6j wild type mice; details: for local concentration in skin at steady state: twice daily for seven days, even for the lower dose used (0.2%), 1 h after last application
Method: as §1, §2
as §3, with “3 min. […]” for “3 min.”

[7] = parameters: method as in PMID 17975020; details: cited from earlier work
[8] = system: PPAR β/δ mediated skin disease; test: Control of skin disease induced by i.p. GW501516, ointment at different frequencies; format: in vivo, PPAR β/δ transgenic mice
Method: All animal studies reported here were subject to approval of Tayside Research Ethics Committee, and are conducted in accordance with UK Home Office procedures (project licence 60/3800, licence holder JF). Breeding of PPAR β/δ transgenic mice and genotyping were all carried out as described previously. […]
as §5, with “The absence of variable planes of tissue sectioning as a confounder for apparent epidermal thickness was ruled out by verifying visible perpendicular insertion of hair follicles into the epidermis.” left out

PPARβ/δ [9] = details: in vitro data taken from literature; ref references listed in Figure 1; read-out: EC50 PPARβ/δ competitive antagonism; cited from earlier work
PPARβ/δ [10] = details: cited from earlier work; for IC50: in vitro data taken from literature, ref references listed in Figure 1, read-out: IC50 PPARβ/δ binding
[11] = system: PPAR β/δ mediated psoriasis-like skin disease; test: Prevention of epidermal hyperplasia, agonist GW501516 and antagonist both topical; format: in vivo, PPAR β/δ transgenic mice; details: antagonist ointment once per day, GW501516 0.1% ointment five times per week, 20 days
Method: as §5, with “The absence of variable planes of tissue sectioning as a confounder for apparent epidermal thickness was ruled out by verifying visible perpendicular insertion of hair follicles into the epidermis.” left out

psoriasis (PASI scores) = system: psoriasis (PASI scores); parameters: method as in PMID 15479756; details: systemic administration; cited from earlier work
PPAR β/δ = system: PPAR β/δ; parameters: method as in PMID 17488971; details: cited from earlier work
psoriasis = system: psoriasis; parameters: method as in PMID 12673084; details: cited from earlier work

## COC(=O)c1sccc1S(=O)(=O)Nc1ccc(Nc2ccccc2)cc1OC [GSK0660]
[1]; qPCR, oral GW501516, ointment twice daily three weeks
  reversal of IL1b expression: only observed using the ointment containing GSK0660
[2]; PPAR β/δ transgenic, mouse, skin, topical, after 20 days of treatment, read-out: concentration in skin tissue
  concentration at 12 h: 48 ± 18 ng/g
[2]; PPAR β/δ transgenic, mouse, whole blood, topical, after 20 days, threshold of detection, read-out: concentration in blood
  concentration at 12 h: < 25 nM
[3]
  stability on storage (colour change): visible colour change from yellow to green
Other PPAR isoforms
  Activity on other PPAR isoforms: Not active at 10 μM
[4]
  total amount of detectable compound in blood as fraction of total drug applied: less than 0.01%
[4]; blood measured for 24 h after drug application
  drug accumulation in blood: no evidence of drug accumulation
[4]; over 24 h after drug application (figure 2b)
  total drug detectable in blood as fraction of total drug applied: less than 0.01%
[5]
  drug concentration up to which the optimised ointment formulation is devoid of drug crystals: up to 2 % (w/w)
Shaved dorsal skin; one week, H&E
  apoptotic epidermal keratinocytes: apoptotic looking cells
Shaved dorsal skin; one week
  number of dermal nuclei per high power field: unchanged as compared to vehicle-only treated skin
Shaved dorsal skin; H&E
  epidermal hyperplasia induced by antagonist: neither antagonist produced notable epidermal hyperplasia
[6]; C57Bl/6j, mouse, topical, 42 mg ointment applied to dorsal skin (figure 3)
  half-life: ~1.5 h
[6]
  local concentration in skin at steady state: high local concentrations
[7]
  bioavailability upon systemic administration: lack of bioavailability upon systemic administration

## O=C(NCCS(=O)(=O)c1ccc(C(F)(F)F)cn1)c1ccc(Cl)cc1 [GSK3787]
[1]; twice-daily versus three times weekly application (fig. 8b)
  expression of PPAR β/δ target genes LCE3f, IL1-beta, and HBEGF: suppression
[2]; 16 h after the final application
  tissue level of unmodified drug in lesional skin: 240 ± 116 nmol/g of tissue
[2]; PPAR β/δ transgenic, mouse, whole blood, topical, inflamed skin, 16 h after last cream application, read-out: concentration in blood at the end of the experiment
  concentration at 16 h: 445 ± 429 nM
[8]; H&E of treated area and its edge (figure S2)
  range of therapeutic activity: efficacy was limited to the area of cream application
[8]; even when applied only 3× per week (fig. 7b)
  reducing the amount of dermal infiltrate: as effective as GSK0660
[8]; even when applied only 3× per week, comparator twice daily (fig. 7a)
  preventing epidermal hyperplasia: as effective as GSK0660
Other PPAR isoforms
  Activity on other PPAR isoforms: Active on PPARγ at 1 μM
[4]; C57Bl/6j, mouse, whole blood, topical, healthy mice after 20 days of twice-daily treatment, n = 3
  concentration at 20 days: 50.2 ± 25.7 nM
PPARβ/δ [9]
  EC50: 100 nM
PPARβ/δ [10]
  mode of receptor inactivation: irreversibly inactivates the receptor by forming a covalent bond
  IC50: 6.7 nM

## Cc1cc(SCc2sc(-c3ccc(C(F)(F)F)cc3)nc2C)ccc1OCC(=O)O [GW501516]
[4]; 1 h post application, ointment concentrated 10-fold less (0.1%)
  systemic absorption relative to the antagonists: 100 fold
[4]; 1 h post topical application, 0.1% ointment
  peak serum concentration: 400 nM

## CCCCOc1ccc(-c2ccc(C(=O)O)cc2C)cc1CNC(=O)c1ccc(C(F)(F)F)cc1F [compound 3 h]
Other PPAR isoforms; listed as Compound 3 h
  Activity on other PPAR isoforms: lack of activity on other PPAR isoforms
Other PPAR isoforms; listed as Compound 3h
  Activity on other PPAR isoforms: Not active at 1 μM
[4]; 1 h after topical application of ointment
  peak systemic concentration compared with reported EC50/IC50: slightly above the in vitro determined EC50 value
[4]
  total amount of detectable compound in blood as fraction of total drug applied: less than 0.01%
[5]
  drug concentration up to which the optimised ointment formulation is devoid of drug crystals: up to 2 % (w/w)
Shaved dorsal skin; one week
  number of dermal nuclei per high power field: unchanged as compared to vehicle-only treated skin
Shaved dorsal skin; H&E
  epidermal hyperplasia induced by antagonist: neither antagonist produced notable epidermal hyperplasia
PPARβ/δ [9]
  EC50: 11 nM
[6]
  local concentration in skin at steady state: high local concentrations
PPARβ/δ [10]
  IC50: 10 nM
PPARβ/δ [10]; low reported Ki
  Ki: 11 nM
[11]
  psoriasis-like epidermal hyperplasia induced by GW501516: significantly attenuated

## CCc1ccc(CCOc2ccc(CC3SC(=O)NC3=O)cc2)nc1 (centres unmarked) [pioglitazone]
Psoriasis (PASI scores)
  effect on PASI scores: no marked reduction of PASI scores

## CN(CCOc1ccc(CC2SC(=O)NC2=O)cc1)c1ccccn1 (centres unmarked) [rosiglitazone]
PPAR β/δ
  activation of PPAR β/δ: can also activate PPAR β/δ
psoriasis
  effect of topical application on psoriasis: showed no effect

## CCCCCCCCCCCCCCSCC(=O)O [tetradecylthioacetic acid (TTA), tetradecylthioacetic acid]
psoriasis
  effect of topical application on psoriasis: showed no effect
